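Method: 48-hour compound exposure of cells in 96-well plates, five concentrations, linear interpolation of endpoints. The concentration for 50% growth inhibition is given as GI50.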 Active and inactive are the calls of the source. No stated cut-off is given here; in the data, active = GI50 up to about 1.1 µM and inactive = higher.
Key:
Assay in all cases: DTP human tumour cell line panel, 48 h
[1] = tested on: CAKI-1
[2] = tested on: SF-268
[3] = tested on: PC-3
[4] = tested on: A549
[5] = tested on: SW-620
[6] = tested on: OVCAR-4
[7] = tested on: DU-145
[8] = tested on: HCT-15
[9] = tested on: LOX IMVI
[10] = tested on: COLO 205
[11] = tested on: SF-295
[12] = tested on: 786-0
[13] = tested on: RXF 393
[14] = tested on: NCI-H460
[15] = tested on: MOLT-4
[16] = tested on: NCI-H23
[17] = tested on: OVCAR-5
[18] = tested on: HCT-116

**Q.** `O=C1CCCCCC1CC(Sc1ccccc1)Sc1ccccc1` (centres undefined) was tested. Which GI50 [1] did it give?
**A.** > 100 µM (inactive)

**Q.** What about the GI50 [2] of the same molecule?
**A.** > 100 µM (inactive)

**Q.** What about the GI50 [3] of the same molecule?
**A.** 51.6 µM (inactive)

**Q.** What about the GI50 [4] of the same molecule?
**A.** 39.8 µM (inactive)

**Q.** What about the GI50 [5] of the same molecule?
**A.** 98.2 µM (inactive)

**Q.** What about the GI50 [6] of the same molecule?
**A.** 96.4 µM (inactive)

**Q.** What about the GI50 [7] of the same molecule?
**A.** > 100 µM (inactive)

**Q.** And the GI50 [8]?
**A.** > 100 µM

**Q.** What about the GI50 [9] of the same molecule?
**A.** > 100 µM (inactive)

**Q.** What about the GI50 [10] of the same molecule?
**A.** 61.4 µM (inactive)

**Q.** What about the GI50 [11] of the same molecule?
**A.** > 100 µM (inactive)

**Q.** And the GI50 [12]?
**A.** > 100 µM (inactive)

**Q.** And the GI50 [13]?
**A.** > 100 µM (inactive)

**Q.** What about the GI50 [14] of the same molecule?
**A.** 64.7 µM (inactive)

**Q.** And the GI50 [15]?
**A.** 8.69 µM (inactive)

**Q.** What about the GI50 [16] of the same molecule?
**A.** 75.3 µM (inactive)

**Q.** What about the GI50 [17] of the same molecule?
**A.** > 100 µM (inactive)

**Q.** With `O=C1OS2(OC(=O)c3cccc4cccc2c34)c2ccccc21` (centres undefined) as the molecule, how does the GI50 [1] read?
**A.** > 100 µM (inactive)

**Q.** And the GI50 [2]?
**A.** > 100 µM (inactive)

**Q.** What about the GI50 [3] of the same molecule?
**A.** > 100 µM (inactive)

**Q.** And the GI50 [4]?
**A.** > 100 µM (inactive)

**Q.** And the GI50 [5]?
**A.** > 100 µM (inactive)

**Q.** And the GI50 [6]?
**A.** > 100 µM (inactive)

**Q.** What about the GI50 [7] of the same molecule?
**A.** > 100 µM (inactive)

**Q.** What about the GI50 [8] of the same molecule?
**A.** > 100 µM

**Q.** And the GI50 [9]?
**A.** > 100 µM (inactive)

**Q.** And the GI50 [10]?
**A.** > 100 µM (inactive)

**Q.** What about the GI50 [18] of the same molecule?
**A.** > 100 µM (inactive)

**Q.** What about the GI50 [11] of the same molecule?
**A.** > 100 µM (inactive)

**Q.** What about the GI50 [12] of the same molecule?
**A.** > 100 µM (inactive)

**Q.** What about the GI50 [13] of the same molecule?
**A.** > 100 µM (inactive)

**Q.** And the GI50 [15]?
**A.** > 100 µM (inactive)

**Q.** And the GI50 [16]?
**A.** > 100 µM (inactive)

**Q.** What about the GI50 [17] of the same molecule?
**A.** > 100 µM (inactive)

**Q.** Which GI50 [1] does the source give for `O=S(=O)(c1cc(Cl)ccc1Cl)N1CCN(c2ccc(Cl)c(Cl)c2)CC1` here?
**A.** 22 µM (inactive)

**Q.** What about the GI50 [2] of the same molecule?
**A.** 27.3 µM (inactive)

**Q.** And the GI50 [3]?
**A.** 99.8 µM (inactive)

**Q.** What about the GI50 [4] of the same molecule?
**A.** 35.7 µM (inactive)

**Q.** And the GI50 [5]?
**A.** > 100 µM (inactive)

**Q.** And the GI50 [6]?
**A.** 16.1 µM (inactive)

**Q.** What about the GI50 [7] of the same molecule?
**A.** > 100 µM (inactive)

**Q.** What about the GI50 [8] of the same molecule?
**A.** > 100 µM

**Q.** And the GI50 [9]?
**A.** > 100 µM (inactive)

**Q.** What about the GI50 [18] of the same molecule?
**A.** 34.6 µM (inactive)

**Q.** And the GI50 [11]?
**A.** 24.9 µM (inactive)

**Q.** What about the GI50 [12] of the same molecule?
**A.** 17.9 µM (inactive)

**Q.** And the GI50 [13]?
**A.** 21 µM (inactive)

**Q.** What about the GI50 [14] of the same molecule?
**A.** > 10 µM (inactive)

**Q.** What about the GI50 [15] of the same molecule?
**A.** > 100 µM (inactive)

**Q.** And the GI50 [16]?
**A.** 33.4 µM (inactive)

**Q.** And the GI50 [17]?
**A.** > 100 µM (inactive)

**Q.** What does the source list for `O=c1oc2ccc3ccccc3c2cc1-c1nc2ccccc2s1`?
**A.** GI50 [1]: > 100 µM (inactive); GI50 [2]: > 100 µM (inactive); GI50 [3]: > 100 µM (inactive); GI50 [4]: > 23.1 µM (inactive); GI50 [5]: > 100 µM (inactive); GI50 [6]: > 100 µM (inactive); GI50 [7]: > 100 µM (inactive); GI50 [8]: > 100 µM; GI50 [9]: > 100 µM (inactive); GI50 [10]: > 100 µM (inactive); GI50 [18]: > 100 µM (inactive); GI50 [11]: > 100 µM (inactive); GI50 [12]: > 100 µM (inactive); GI50 [13]: > 100 µM (inactive); GI50 [14]: > 100 µM (inactive); GI50 [16]: > 100 µM (inactive); GI50 [17]: > 100 µM (inactive)

**Q.** `CC1=NN(c2cccc(Cl)c2)C2(SCC(=O)N2c2nc3ccccc3s2)/C1=C\c1cccs1` (centres undefined) was tested. Which GI50 [1] did it give?
**A.** 29.7 µM (inactive)

**Q.** And the GI50 [2]?
**A.** 18.9 µM (inactive)

**Q.** And the GI50 [3]?
**A.** 25.5 µM (inactive)

**Q.** What about the GI50 [4] of the same molecule?
**A.** 33.8 µM (inactive)

**Q.** And the GI50 [5]?
**A.** 34.3 µM (inactive)

**Q.** And the GI50 [6]?
**A.** 21 µM (inactive)

**Q.** What about the GI50 [7] of the same molecule?
**A.** 46.5 µM (inactive)

**Q.** What about the GI50 [8] of the same molecule?
**A.** 20.7 µM

**Q.** And the GI50 [9]?
**A.** 23.8 µM (inactive)

**Q.** And the GI50 [18]?
**A.** 20.6 µM (inactive)

**Q.** And the GI50 [11]?
**A.** 27.4 µM (inactive)

**Q.** And the GI50 [12]?
**A.** 19.5 µM (inactive)

**Q.** And the GI50 [13]?
**A.** 20.3 µM (inactive)

**Q.** What about the GI50 [14] of the same molecule?
**A.** 27.2 µM (inactive)

**Q.** And the GI50 [15]?
**A.** 11.4 µM (inactive)

**Q.** And the GI50 [16]?
**A.** 18.5 µM (inactive)

**Q.** And the GI50 [17]?
**A.** 20.8 µM (inactive)

**Q.** Which GI50 [1] does the source give for `O=C(CC(O)(C(F)(F)Cl)C(F)(F)Cl)CC(O)(C(F)(F)Cl)C(F)(F)Cl` here?
**A.** 2 µM (inactive)

**Q.** And the GI50 [2]?
**A.** 1.5 µM (inactive)

**Q.** What about the GI50 [3] of the same molecule?
**A.** 1.11 µM (active)

**Q.** And the GI50 [4]?
**A.** 1.73 µM (inactive)

**Q.** What about the GI50 [5] of the same molecule?
**A.** 3.36 µM (inactive)

**Q.** And the GI50 [6]?
**A.** 1.33 µM (inactive)

**Q.** What about the GI50 [7] of the same molecule?
**A.** 0.515 µM (active)

**Q.** And the GI50 [8]?
**A.** 1.07 µM

**Q.** What about the GI50 [9] of the same molecule?
**A.** 3.83 µM (inactive)

**Q.** What about the GI50 [10] of the same molecule?
**A.** 1.63 µM (inactive)

**Q.** What about the GI50 [18] of the same molecule?
**A.** 1.19 µM (inactive)

**Q.** And the GI50 [11]?
**A.** 2.36 µM (inactive)

**Q.** And the GI50 [12]?
**A.** 2.89 µM (inactive)

**Q.** What about the GI50 [13] of the same molecule?
**A.** 1.8 µM (inactive)

**Q.** What about the GI50 [14] of the same molecule?
**A.** 1.24 µM (inactive)

**Q.** What about the GI50 [15] of the same molecule?
**A.** 2.14 µM (inactive)

**Q.** And the GI50 [16]?
**A.** 0.975 µM (active)

**Q.** How did the GI50 [1] turn out when `Nc1nnnn1NC(=O)NCCCl` was run?
**A.** > 10 µM (inactive)

**Q.** What about the GI50 [2] of the same molecule?
**A.** > 10 µM (inactive)

**Q.** What about the GI50 [3] of the same molecule?
**A.** > 10 µM (inactive)

**Q.** And the GI50 [4]?
**A.** > 10 µM (inactive)

**Q.** What about the GI50 [5] of the same molecule?
**A.** > 10 µM (inactive)

**Q.** And the GI50 [6]?
**A.** > 10 µM (inactive)

**Q.** What about the GI50 [7] of the same molecule?
**A.** > 10 µM (inactive)

**Q.** And the GI50 [8]?
**A.** > 10 µM

**Q.** And the GI50 [9]?
**A.** > 10 µM (inactive)

**Q.** What about the GI50 [10] of the same molecule?
**A.** > 10 µM (inactive)

**Q.** What about the GI50 [18] of the same molecule?
**A.** > 10 µM (inactive)

**Q.** And the GI50 [11]?
**A.** > 10 µM (inactive)

**Q.** And the GI50 [12]?
**A.** > 10 µM (inactive)

**Q.** What about the GI50 [13] of the same molecule?
**A.** > 10 µM (inactive)

**Q.** What about the GI50 [14] of the same molecule?
**A.** > 10 µM (inactive)

**Q.** What about the GI50 [15] of the same molecule?
**A.** > 10 µM (inactive)

**Q.** What about the GI50 [16] of the same molecule?
**A.** > 10 µM (inactive)
